35 compounds from PubChem BioAssay (NCI) can be followed below.

Some test systems named below: CAKI-1 renal; LXFL 529 NSCLC; KM20L2 colon; DMS 273 small cell lung; HOP-18 NSCLC; XF 498 CNS; M19-MEL melanoma; DMS 114 small cell lung; RXF-631 renal; DLD-1 colon; SNB-78 CNS.
Common to all, as to assay: NCI anticancer screen, dose series, 48 h

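The compound was tested at five concentrations on cells cultured in 96-well plates, with a 48-hour exposure period. GI50: concentration for 50% inhibition of growth. TGI: total growth inhibition.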 Where a SMILES comes first, the peptide text is derived from it. The star is where a group is joined. Boc = CC(C)(C)OC(=O)*

In the assay on CAKI-1 renal, `CCc1nn(S(=O)(=O)c2ccc(C)cc2)c2c1CS(=O)(=O)CC2` yielded a TGI of over 100 µM.

Turning to `COC(=O)C(Cc1c[nH]c2ccccc12)NC(=O)C(Cc1c[nH]c2ccccc12)NC(=O)C(Cc1c[nH]c2ccccc12)NC(=O)C(Cc1c[nH]c2ccccc12)NC(=O)OC(C)(C)C` (centres undefined) (Boc-WWWW-OMe; configuration not given here), the TGI in the assay on CAKI-1 renal was over 100 µM.

`Cc1ccc(NC(=S)Nc2c(C)n(C)n(-c3ccccc3)c2=O)cc1` came in with a TGI in the assay with CAKI-1 renal of over 100 µM.

With `O=C1O[C@H](C(Cl)(Cl)Cl)N2CCCC12` (some centres undefined), the TGI with LXFL 529 NSCLC, in the assay with KM20L2 colon, in the assay with DMS 273 small cell lung, in the assay on HOP-18 NSCLC, with XF 498 CNS and in the assay with CAKI-1 renal was over 100 µM throughout. Besides, the TGI in the assay on M19-MEL melanoma and in the assay with DMS 114 small cell lung was over 100 µM in each case.

`N/N=C1/C(=N/O)CCc2nonc21` returned a TGI with CAKI-1 renal of over 100 µM.

In the assay with CAKI-1 renal, `Cc1cc(=O)n2nc(CSc3nnc(N)s3)sc2n1` gave a TGI of over 100 µM.

With `CCCn1c(=O)c2ccccc2[n+]2c(-c3ccc([N+](=O)[O-])cc3)csc12`, in the assay with CAKI-1 renal, the TGI is over 100 µM.

`CCOC(=O)C1=C(C)C(C(=O)OC)/C(=C/c2cccc3cccnc23)C1=O` (centres undefined) returned a TGI in the assay with CAKI-1 renal of over 10 µM.

Consider `N#Cc1c(N2CCCC2)ncn(Cc2ccccc2)c1=S`, for which the TGI in the assay on CAKI-1 renal was over 100 µM.

For the compound `COc1cc(/C=C2\N=C(c3ccccc3)N(/N=C3\C(=O)Nc4ccccc43)C2=O)cc(OC)c1OC`, the TGI in the assay on CAKI-1 renal was over 100 µM.

Compound `COc1c(OC)c(O)c2c(=O)c(OC)c(-c3ccc4c(c3)OCO4)oc2c1O` yielded a TGI in the assay on CAKI-1 renal of over 100 µM.

On to `CC(NC(=O)OCc1ccccc1)NC(=O)C(CC(=O)OC(C)(C)C)NC(=O)OC(C)(C)C` (centres undefined), for which, in the assay with CAKI-1 renal, the TGI was over 100 µM.

As for `Cc1nccn1S(=O)(=O)c1ccc(Br)cc1Br`, the TGI in the assay with CAKI-1 renal is over 100 µM.

As for `COc1ccccc1NC(=S)N/N=C(/C)c1ccccn1`, the TGI in the assay on CAKI-1 renal is over 100 µM.

For the compound `Cc1cccc2nc3cccc(C(=O)NCCC[N+](C)(CCCNC(=O)c4cccc5nc6cccc(C)c6nc45)Cc4c([N+](=O)[O-])ncn4C)c3nc12`, in the assay on CAKI-1 renal, the GI50 is 107 µM and the TGI was over 1100 µM.

The compound `CCOC(=O)c1c2c(n(-c3ccc(OC)cc3)c1C)C(=O)C(=O)c1ccccc1-2` had a TGI in the assay with CAKI-1 renal of 2.82 µM.

Turning to `CC(C)(C)OC(=O)NC(Cc1ccc(O)cn1)C(N)=O` (centres undefined), the TGI with CAKI-1 renal was over 100 µM.

With `COCN1CCN=c2c1c1c3c(c4ccccc4n23)CCC1`, in the assay on CAKI-1 renal, the TGI was over 100 µM.

For `O=C(Nc1c(Cl)cc([N+](=O)[O-])cc1Cl)C(=O)C1C(=O)NC(=S)NC1=O`, the TGI with CAKI-1 renal was over 100 µM.

Consider `OCC(O)C1OC2CC1Nc1ccccc1N2` (centres undefined), for which, in the assay on CAKI-1 renal, the TGI is over 100 µM.

`O=C(CN1CCCCC1)c1ccc2c(c1)Sc1ccccc1O2` displayed a TGI in the assay with CAKI-1 renal of 37.2 µM.

Regarding `CCOC(=O)C(=O)C1C(=O)Nc2ccccc21` (centres undefined), the TGI in the assay with RXF-631 renal, in the assay with LXFL 529 NSCLC, with DMS 273 small cell lung, in the assay with DLD-1 colon, in the assay with XF 498 CNS and with CAKI-1 renal was over 100 µM each time. Also, the TGI in the assay with M19-MEL melanoma and with DMS 114 small cell lung was over 100 µM throughout.

As for `CCOC(=O)/C(C#N)=C/c1ccc(CO)o1`, the TGI in the assay with CAKI-1 renal is over 100 µM.

As for `COc1ccc(C(=C(I)c2ccccc2)c2ccc(OC)cc2)cc1`, in the assay on CAKI-1 renal, the TGI was over 100 µM.

In the assay on CAKI-1 renal, `COc1ccc(Oc2nc3ccc(C(F)(F)F)cc3nc2-c2ccccc2)cc1` had a TGI of over 100 µM.

Turning to `CCNC(=O)/C=C/CCC#Cc1ccc(-c2ccc(-c3cccs3)s2)s1`, the TGI in the assay with LXFL 529 NSCLC, in the assay on KM20L2 colon, in the assay on DMS 273 small cell lung, in the assay on DLD-1 colon, with HOP-18 NSCLC and with SNB-78 CNS was over 100 µM each time. Further, the TGI was 7.19 µM in the assay on XF 498 CNS, over 100 µM in the assay with CAKI-1 renal, over 100 µM in the assay on M19-MEL melanoma and over 100 µM in the assay on DMS 114 small cell lung.

Turning to `CO/C(=N\N=C\c1ccc(Cl)cc1Cl)c1ccncc1`, in the assay with CAKI-1 renal, the TGI was over 10 µM.

`Cn1c(-c2ccc[se]2)ccc1-c1ccc(CO)[se]1` displayed a TGI with CAKI-1 renal of under 0.0332 µM.

Regarding `C=C1C(=O)O[C@H]2C/C(C)=C/CC/C(C)=C/CC[C@@](C)(O)[C@@H](I)C[C@@H]12`, the TGI in the assay with CAKI-1 renal worked out at 22.4 µM.

With `CN1C/C(=C\c2ccc(Cl)cc2)C(=O)/C(=C/c2ccc(Cl)cc2)C1`, the TGI in the assay with CAKI-1 renal is over 27.6 µM.

Regarding `O=C1OC2(C(F)(F)F)Oc3ccccc3CN2C12CCCCC2` (centres undefined), the TGI in the assay on CAKI-1 renal came to 56.1 µM.

For `OCC(Cn1cncn1)(c1ccc(F)cc1F)n1cncn1` (centres undefined), in the assay with CAKI-1 renal, the TGI was over 100 µM.

As for `O=C(Nc1nnc(-c2ccccc2)o1)C(SC(=S)N1CCOCC1)c1ccccc1` (centres undefined), in the assay on CAKI-1 renal, the TGI is over 100 µM.

Compound `COc1ccc(-c2nc(-c3cc4ccccc4oc3=O)cs2)cc1` yielded a TGI in the assay on CAKI-1 renal of over 100 µM.

`C=CCN(c1cc(OCc2ccccc2)c(NC(C)=O)cc1[N+](=O)[O-])S(C)(=O)=O` displayed a TGI in the assay with CAKI-1 renal of over 100 µM.
